One may read the EC50 as the concentration needed to bring the measured effect to its halfway point. Higher therefore signals a need for much substance. Usually melting point stands for the temperature of the solid-liquid transition.

Data set [1] concerns the target T1, PPARδ-RXRα heterodimer (Homo sapiens, UniProt Q03181).
T1 construct: expressed in transfected cells; host or cells: COS-1
T1 sequence (Q03181 1-441): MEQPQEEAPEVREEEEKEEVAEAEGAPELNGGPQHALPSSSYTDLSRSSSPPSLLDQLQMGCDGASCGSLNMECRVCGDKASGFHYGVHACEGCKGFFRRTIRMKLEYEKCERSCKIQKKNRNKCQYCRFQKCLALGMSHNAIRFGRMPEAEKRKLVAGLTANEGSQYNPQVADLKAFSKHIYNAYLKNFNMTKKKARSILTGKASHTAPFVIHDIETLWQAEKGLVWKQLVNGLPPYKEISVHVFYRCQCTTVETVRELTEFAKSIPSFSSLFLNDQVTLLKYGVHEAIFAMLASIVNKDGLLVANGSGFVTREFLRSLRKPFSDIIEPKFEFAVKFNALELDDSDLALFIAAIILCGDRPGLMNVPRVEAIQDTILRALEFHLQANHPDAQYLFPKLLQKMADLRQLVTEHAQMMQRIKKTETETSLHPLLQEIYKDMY
T1 sequence (P19793 1-462 partner): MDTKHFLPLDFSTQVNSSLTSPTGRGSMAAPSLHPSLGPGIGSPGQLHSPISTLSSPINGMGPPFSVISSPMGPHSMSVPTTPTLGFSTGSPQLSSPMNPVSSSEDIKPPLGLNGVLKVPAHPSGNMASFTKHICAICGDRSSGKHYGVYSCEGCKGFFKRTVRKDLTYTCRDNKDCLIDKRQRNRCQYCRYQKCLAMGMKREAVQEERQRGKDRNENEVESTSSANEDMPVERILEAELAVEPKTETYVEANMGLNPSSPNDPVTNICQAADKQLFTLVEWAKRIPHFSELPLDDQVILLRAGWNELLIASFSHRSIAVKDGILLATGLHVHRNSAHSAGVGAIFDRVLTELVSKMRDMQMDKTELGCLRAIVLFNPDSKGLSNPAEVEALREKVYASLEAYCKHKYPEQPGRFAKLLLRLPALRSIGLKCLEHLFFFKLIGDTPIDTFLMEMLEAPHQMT
Description: PPARδ-RXRα heterodimer ligand activity, luciferase reporter in COS-1 transformant (Test Example 4). Format: cell-based. Conditions: COS-1 transformant (hPPARδ, hRXRα, reporter), 36-48 hours, concentration for 50% of the maximum fold induction. Here is the method:
The transformant obtained in Reference Example 9a was suspended in DMEM medium (produced by Life Technologies, Inc., USA) containing 0.1% fatty acid-free bovine serum albumin (BSA) (produced by Wako Pure Chemical Industries, Ltd.), and inoculate to each well of a 96-well white plate (produced by Corning Costar Corporation, USA) by 80 μl at 1×10^4 cells/well. Then the test compound (20 μl) was added and cultured at 37° C. under 5% CO2 for 36-48 hours. After removing the medium from the 96-well white plate, 40 μl of PIKKAGENE LT 7.5 (produced by Wako Pure Chemical Industries, Ltd.) diluted twice with HBSS (HANKS' BALANCED SALT SOLUTION)(produced by BIO WHITTAKER Inc., USA), was added. After stirring, the luciferase activity was determined using 1420 ARVO Multilabel Counter (produced by PerkinElmer Inc., USA).
A fold induction was calculated based on the luciferase activity of each test compound by taking the luciferase activity in the non-treatment group as 1. The values of the test compound concentration and the fold induction were analyzed using PRISM (produced by GraphPad Software Inc. USA) to calculate the EC50 values, the effective concentration of a test compound for 50% of the maximum fold induction.
COS-1 cells were inoculated to a 150 cm^2 cell culture flask (produced by Corning Costar Corporation, USA) at the density of 5×10^6 cells/50 ml, and cultured at 37° C. under 5% CO2 conditions for 24 hours. Subsequently, a DNA was introduced into the cell under the condition shown below using Lipofectamine (produced by Invitrogen, USA).
First, Lipofectamine (125 μl), PLUS Reagent (100 μl, produced by Invitrogen, USA), plasmid pMCMVneo-hPPARδ (2.5 μg) obtained in Reference Example 3a, plasmid pMCMVneo-hRXRα (2.5 μg) obtained in Reference Example 4a and reporter plasmid pGL3-4ERPP-TK neo (5 μg) obtained in Reference Example 5a, and pRL-tk (5 μg, produced by Promega, USA) were mixed with opti-MEM (5 ml, produced by Invitrogen, USA) to give a transfection mixture.
Then, the above-mentioned transfection mixture and opti-MEM (20 ml) were added to COS-1 cells washed with opti-MEM, and the cells were cultured at 37° C. under 5% CO2 conditions for 3 hours. DMEM medium (25 ml, produced by Life Technologies, Inc., USA) containing 0.1% fatty acid-free bovine serum albumin (BSA) (produced by Wako Pure Chemical Industries, Ltd.) was added to the obtained COS-1 cells, and the cells were cultured at 37° C. under 5% CO2 conditions for 18-24 hours to give a transformant.
On the technique in general: Reporter assays use an easily measured gene product as a stand-in for the process of interest.

On to `Cc1nn(-c2ccc(C(F)(F)F)cn2)cc1CCCOc1cccc(CC(=O)O)c1` [Example 127, [3-(3-{3-methyl-1-[5-(trifluoromethyl)-2-pyridyl]-1H-pyrazol-4-yl}propoxy)phenyl]acetic acid], for which the melting point was in the range of 96 to 97 °C. This compound also showed an EC50 in data set [1] of 3.9 nM.
Take `CCCc1nn(-c2ccc(C(F)(F)F)cn2)cc1CCCOc1cc(CC(=O)O)ccc1OCC` [Example 204, [4-ethoxy-3-(3-{3-propyl-1-[5-(trifluoromethyl)-2-pyridyl]-1H-pyrazol-4-yl}propoxy)phenyl]acetic acid]: the melting point is 124 to 125 °C. The compound further had an EC50 in data set [1] of 4.6 nM.
With `CCOc1nn(-c2ccc(C(F)(F)F)cc2)cc1CCCOc1ccccc1CC(=O)O` [Example 182, [2-(3-{3-ethoxy-1-[4-(trifluoromethyl)phenyl]-1H-pyrazol-4-yl}propoxy)phenyl]acetic acid], the melting point was 114 to 115 °C. Also, the EC50 in data set [1] came to 5.6 nM.
For `CCOc1nn(-c2ccc(C(F)(F)F)cn2)cc1CCCOc1c(CC(=O)O)cccc1OC` [Example 146, [2-(3-{3-ethoxy-1-[5-(trifluoromethyl)-2-pyridyl]-1H-pyrazol-4-yl}propoxy)-3-methoxyphenyl]acetic acid], in that order: 122 to 123 °C and 5.8 nM.
For `CCOc1nn(-c2ccc(C(F)(F)F)cn2)cc1CCCOc1ccc(CCC(=O)O)c(OC)c1` [Example 85, 3-[4-(3-{3-ethoxy-1-[5-(trifluoromethyl)-2-pyridyl]-1H-pyrazol-4-yl}propoxy)-2-methoxyphenyl]propionic acid], in that order: 120 to 121 °C and 6 nM.
`Cc1cc(OCc2cn(-c3ccc(C(F)(F)F)cn3)nc2C)ccc1CCC(=O)O` [Example 123, 3-[2-methyl-4-({3-methyl-1-[5-(trifluoromethyl)-2-pyridyl]-1H-pyrazol-4-yl}methoxy)phenyl]propionic acid] yielded a melting point of 144 to 145 °C. Besides, the EC50 in data set [1] was 2.9 nM.
The compound `CCCc1cn(CC(=O)O)nc1OCCCc1cn(-c2ccc(C(F)(F)F)cn2)nc1OCC` [Example 255, [3-(3-{3-ethoxy-1-[5-(trifluoromethyl)-2-pyridyl]-1H-pyrazol-4-yl}propoxy)-4-propyl-1H-pyrazol-1-yl]acetic acid] came in with a melting point of 134 to 135 °C. Moreover, the midpoint of the response in data set [1], the EC50, lay at 9.5 nM.
For `CCOc1nn(-c2ccc(C(F)(F)F)cn2)cc1CCOc1cc(CCC(=O)O)n(-c2ccccc2)n1` [Example 56, 3-[3-(2-{3-ethoxy-1-[5-(trifluoromethyl)-2-pyridinyl]-1H-pyrazol-4-yl}ethoxy)-1-phenyl-1H-pyrazol-5-yl]propanoic acid], in that order: 155 to 156 °C and 2.8 nM.
Turning to `CCOc1cc(OCCCc2cn(-c3ccc(C(F)(F)F)cn3)nc2C)ccc1CCC(=O)O` [Example 126, 3-[2-ethoxy-4-(3-{3-methyl-1-[5-(trifluoromethyl)-2-pyridyl]-1H-pyrazol-4-yl}propoxy)phenyl]propionic acid], the melting point is 129 to 130 °C. The EC50 in data set [1] was found to be 2.2 nM.
For `CCCc1nn(-c2ccc(C(F)(F)F)cn2)cc1CCCOc1cccc(CC(=O)O)c1F` [Example 258, [2-fluoro-3-(3-{3-propyl-1-[5-(trifluoromethyl)-2-pyridyl]-1H-pyrazol-4-yl}propoxy)phenyl]acetic acid], in that order: 109 to 110 °C and 5.5 nM.
For `CCCc1nn(-c2ccc(C(F)(F)F)cn2)cc1CCCOc1ccc(CCC(=O)O)c(C)c1` [Example 65, 3-[2-methyl-4-(3-{3-propyl-1-[5-(trifluoromethyl)-2-pyridinyl]-1H-pyrazol-4-yl}propoxy)phenyl]propanoic acid], in that order: 124 to 126 °C and 1.8 nM.
For `CCOc1cc(OCCCc2cn(-c3ccc(C(F)(F)F)cn3)nc2OC)ccc1CCC(=O)O` [Example 152, 3-[2-ethoxy-4-(3-{3-methoxy-1-[5-(trifluoromethyl)-2-pyridyl]-1H-pyrazol-4-yl}propoxy)phenyl]propanoic acid], in that order: 145 to 146 °C and 9.9 nM.
Compound `CC(C)c1nn(-c2ccc(C(F)(F)F)cn2)cc1CCCCOc1cc(CCC(=O)O)n(-c2ccccc2)n1` [Example 49, 3-[3-(4-{3-isopropyl-1-[5-(trifluoromethyl)-2-pyridinyl]-1H-pyrazol-4-yl}butoxy)-1-phenyl-1H-pyrazol-5-yl]propanoic acid] registered a melting point of 137 to 138 °C. In data set [1], the EC50 worked out at 1.7 nM.
For `CCCOc1cc(OCCCc2cn(-c3ccc(C(F)(F)F)cn3)nc2OCC)ccc1CCC(=O)O` [Example 117, 3-[4-(3-{3-ethoxy-1-[5-(trifluoromethyl)-2-pyridinyl]-1H-pyrazol-4-yl}propoxy)-2-propoxyphenyl]propanoic acid], in that order: 126 to 127 °C and 1.6 nM.
For `CCOc1nn(-c2ccc(C(F)(F)F)cn2)cc1CCOc1cccc(CC(=O)O)c1` [Example 62, [3-(2-{3-ethoxy-1-[5-(trifluoromethyl)-2-pyridinyl]-1H-pyrazol-4-yl}ethoxy)phenyl]acetic acid], in that order: 128 to 130 °C and 0.81 nM.
For `CCOc1nn(-c2ccc(C(F)(F)F)cn2)cc1CCCOc1cc(CC(=O)O)ccc1OC` [Example 131, [3-(3-{3-ethoxy-1-[5-(trifluoromethyl)-2-pyridyl]-1H-pyrazol-4-yl}propoxy)-4-methoxyphenyl]acetic acid], in that order: 142 to 143 °C and 2.7 nM.
In turn, `CCCCOc1nn(-c2ccc(C(F)(F)F)cn2)cc1CCCOc1ccc(CCC(=O)O)c(OCC)c1` [Example 155, 3-[4-(3-{3-butoxy-1-[5-(trifluoromethyl)-2-pyridyl]-1H-pyrazol-4-yl}propoxy)-2-ethoxyphenyl]propanoic acid] yielded a melting point of 102 to 103 °C. In data set [1], this compound had an EC50 of 3.8 nM.
`CCCCOc1cc(OCCCc2cn(-c3ccc(C(F)(F)F)cn3)nc2OCC)ccc1CCC(=O)O` [Example 118, 3-[2-butoxy-4-{3-(3-ethoxy-1-[5-(trifluoromethyl)-2-pyridinyl]-1H-pyrazol-4-yl}propoxy)phenyl]propanoic acid] yielded a melting point of 123 to 124 °C. Also, in data set [1], the EC50 came out at 7.2 nM.
Take `CCOc1cc(OCCCc2cn(-c3ccc(C(F)(F)F)cn3)nc2OC(C)C)ccc1CCC(=O)O` [Example 154, 3-[2-ethoxy-4-(3-{3-isopropoxy-1-[5-(trifluoromethyl)-2-pyridyl]-1H-pyrazol-4-yl}propoxy)phenyl]propanoic acid]: the melting point lay within 128 to 129 °C. For the same compound, a half-maximal response in data set [1] (EC50) required 1.5 nM.
